Earlier results on two compounds are cited in patent US20230039551A1, “BUFFER- AND CHELATOR-FREE, STABLE OPHTHALMOLOGICAL COMPOSITIONS OF KETOROLAC AND PHENYLEPHRINE AND APPLICATIONS THEREOF” (Somerset Therapeutics, LLC, priority 2021, published 2023).

Structures can show the parent of a compound that is named as a salt.

Consider `O=C(c1ccccc1)c1ccc2n1CCC2C(=O)O` (centres unmarked) [Ketorolac tromethamine, 2-amino-2-(hydroxymethyl)propane-1,3-diol; 5-benzoyl-2,3-dihydro-1H-pyrrolizine-1-carboxylic acid], for which the pKa value entry was “about 3.5”. As to `CNC[C@H](O)c1cccc(O)c1` [Phenylephrine HCl, 3-(1R)-1-hydroxy-2-(methylamino)ethyl]phenol; hydrochloride], the pKa value entry is recorded as “about 9.07”.
